In article PMC10126811, “The dinitrobenzamide mustard prodrugs, PR-104A and SN27686, for use in a novel MNDEPT cancer prodrug therapy approach” (Bioscience Reports, 2023):
Where two headings read alike, the source gives them in different places.

Experiments:
YfkO-cys = test system: T1, YfkO-cys; assay: prodrug consumption at […] nm, microplate, Michaelis-Menten fit; format: biochemical, Bacillus licheniformis; conditions: NADH 4 mM, 50 mM phosphate pH 7.2, 37 °C, 5% v/v DMSO, prodrug 0.1-20 mM
T1 construct: pET28a+ His-tag plus tag of 6 N-terminal cysteines, tags kept; E. coli Rosetta pLysS; FMN-loaded; approx. 30 kDa monomer on SDS-PAGE; free enzyme

NfnB-cys = target: T2, NfnB-cys (Escherichia coli, UniProt P38489); assay: as above; format: biochemical; conditions: read-out: Km μM, NADH 4 mM, 50 mM phosphate pH 7.2, 37 °C, 5% v/v DMSO, prodrug 0.1-20 mM
T2 construct: gene nfsB; pET28a+ His-tag plus tag of 6 N-terminal cysteines, tags kept; E. coli Rosetta pLysS; FMN-loaded; approx. 28 kDa monomer on SDS-PAGE; free enzyme
T2 sequence (P38489 whole entry): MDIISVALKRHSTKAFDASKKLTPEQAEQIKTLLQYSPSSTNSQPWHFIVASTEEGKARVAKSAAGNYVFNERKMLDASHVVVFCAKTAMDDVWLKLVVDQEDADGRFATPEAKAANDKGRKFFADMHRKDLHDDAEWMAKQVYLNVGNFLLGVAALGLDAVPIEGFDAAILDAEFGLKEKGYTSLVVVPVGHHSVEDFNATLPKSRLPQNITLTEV

| SMILES | Km (YfkO-cys; text b40 prints 1935 μM) | Km (NfnB-cys; text b40 prints 3172 μM) | Km (YfkO-cys) | Km (NfnB-cys; text b40 prints 257 μM) |
| --- | --- | --- | --- | --- |
| CS(=O)(=O)OCCN(CCBr)c1c(C(=O)NCCO)cc([N+](=O)[O-])cc1[N+](=O)[O-] [PR-104A, 2-[N-(2-bromoethyl)-2-(2-hydroxyethylcarbamoyl)-4,6-dinitroanilino]ethylmethanesulfonate] | 1900 ± 350 µM | 3100 ± 400 µM | – | – |
| O=C(NCCO)c1cc([N+](=O)[O-])cc([N+](=O)[O-])c1N(CCBr)CCBr [SN27686] | – | – | 420 ± 120 µM | 250 ± 80 µM |
